Data reported in US8946282B2, “Indolin-2-one derivatives as protein kinase inhibitors” (Annji Pharmaceutical Co., Ltd., priority 2012, dated 2015).

Columns and labels:
[1] = tested on: HepG2 human hepatocellular carcinoma cells; experiment: anti-proliferation, SRB colorimetric assay, HepG2; type: cell-based; conditions: concentration required for 50% growth inhibition, read-out: IC50 (μM, mean ± S.D.)
Source text: HCT116 human colorectal carcinoma cells (Table 3), HepG2 human hepatocellular carcinoma cells (Table 4), and MV4-11 human acute myelomonocytic leukemia cells (Table 5).

aurora B = aurora B (Homo sapiens, UniProt Q96GD4); experiment: radioisotope-based P81 filter-binding assay, aurora B kinase; type: biochemical; conditions: averaged from two independent dose-response curves; read-out: Enzyme assay IC50 Aur B
Description: (§1) Compounds of formula (I)-(IV) were evaluated for abilities in inhibiting protein kinases aurora B and FLT-3 activity using radioisotope-based P81 filter-binding assay (Table 1).

FLT-3 = biological target: T1, FLT-3 (Homo sapiens, UniProt P36888); experiment: radioisotope-based P81 filter-binding assay, FLT-3 kinase; type: biochemical; conditions: averaged from two independent dose-response curves; read-out: Enzyme assay IC50 FLT-3
T1 sequence (P36888 27-993): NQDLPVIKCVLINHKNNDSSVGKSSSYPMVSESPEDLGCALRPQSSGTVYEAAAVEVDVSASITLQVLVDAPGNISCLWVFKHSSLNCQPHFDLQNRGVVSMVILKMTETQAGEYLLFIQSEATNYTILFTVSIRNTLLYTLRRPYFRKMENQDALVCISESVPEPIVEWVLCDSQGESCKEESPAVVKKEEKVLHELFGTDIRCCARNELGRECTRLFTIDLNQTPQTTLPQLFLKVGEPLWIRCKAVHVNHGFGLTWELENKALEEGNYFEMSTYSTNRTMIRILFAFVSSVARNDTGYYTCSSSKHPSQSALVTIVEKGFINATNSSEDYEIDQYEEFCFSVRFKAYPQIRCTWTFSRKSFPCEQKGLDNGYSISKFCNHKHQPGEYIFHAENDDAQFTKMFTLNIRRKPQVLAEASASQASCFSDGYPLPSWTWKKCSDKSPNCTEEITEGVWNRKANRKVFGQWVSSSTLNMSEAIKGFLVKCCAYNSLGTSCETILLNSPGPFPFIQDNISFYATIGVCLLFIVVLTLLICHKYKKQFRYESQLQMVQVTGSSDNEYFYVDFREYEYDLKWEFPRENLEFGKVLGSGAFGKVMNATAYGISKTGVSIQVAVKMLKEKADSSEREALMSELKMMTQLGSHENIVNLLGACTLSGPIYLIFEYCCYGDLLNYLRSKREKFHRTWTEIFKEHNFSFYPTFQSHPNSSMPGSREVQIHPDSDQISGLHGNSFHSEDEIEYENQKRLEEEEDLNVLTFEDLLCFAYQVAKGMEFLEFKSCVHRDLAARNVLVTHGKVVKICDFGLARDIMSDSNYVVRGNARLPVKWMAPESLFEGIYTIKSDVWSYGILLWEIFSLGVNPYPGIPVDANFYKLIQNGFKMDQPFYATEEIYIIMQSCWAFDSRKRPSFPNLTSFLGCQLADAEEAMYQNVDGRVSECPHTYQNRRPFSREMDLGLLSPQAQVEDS
Description: as §1

[2] = tested on: MV4-11 human acute myelomonocytic leukemia cells; experiment: anti-proliferation, SRB colorimetric assay, MV4-11; type: cell-based; conditions: concentration required for 50% growth inhibition
Description: HCT116 human colorectal carcinoma cells (Table 3), HepG2 human hepatocellular carcinoma cells (Table 4), and MV4-11 human acute myelomonocytic leukemia cells (Table 5). Cells were treated with the test compound and the concentration required for 50% growth inhibition (IC50) determined by sulfomodamine B (SRB) colorimetric assay.

aurora B, sequence (Q96GD4 whole entry): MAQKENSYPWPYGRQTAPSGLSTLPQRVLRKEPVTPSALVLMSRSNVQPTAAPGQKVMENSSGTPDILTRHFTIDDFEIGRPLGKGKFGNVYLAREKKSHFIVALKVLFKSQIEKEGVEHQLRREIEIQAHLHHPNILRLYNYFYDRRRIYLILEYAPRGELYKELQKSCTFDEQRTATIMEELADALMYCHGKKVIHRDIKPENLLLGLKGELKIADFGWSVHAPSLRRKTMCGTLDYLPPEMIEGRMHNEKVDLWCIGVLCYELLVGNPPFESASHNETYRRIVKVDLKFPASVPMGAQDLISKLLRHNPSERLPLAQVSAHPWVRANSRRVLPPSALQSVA

| Compound | IC50 [1] [µM] | IC50 (aurora B) [nM] | IC50 (FLT-3) [nM] | IC50 [2] [nM] | melting point |
| --- | --- | --- | --- | --- | --- |
| COc1ccc(C(=O)NC(=O)Nc2ccc3c(c2)NC(=O)/C3=C\c2ccc[nH]2)cc1 [D15] | 0.96 ± 0.03 | 14.9 | 334 | 6.13 |  |
| O=C(NC(=O)c1ccccc1)Nc1ccc2c(c1)NC(=O)/C2=C\c1ccc[nH]1 [D24, (Z)—N-(3-((1H-pyrrol-2-yl)methylene)-2-oxoindolin-6-ylcarbamoyl)benzamide] | 0.89 ± 0.03 | 5.3 | > 10000 |  | 290 to 295 °C (dec.) |
| O=C(NC(=O)c1ccc(Cl)cc1)Nc1ccc2c(c1)NC(=O)/C2=C\c1ccc[nH]1 [D25, (Z)—N-(3-((1H-pyrrol-2-yl)methylene)-2-oxoindolin-6-ylcarbonamoyl)-4-chlorobenzamide] | 0.94 ± 0.03 | 6.5 | 676 | 6.14 | 280 to 285 °C (dec.) |
| O=C(NC(=O)c1ccc(C(F)(F)F)cc1)Nc1ccc2c(c1)NC(=O)/C2=C\c1ccc[nH]1 [D27, (Z)—N-(3-((1H-pyrrol-2-yl)methylene)-2-oxoindolin-6-ylcarbamoyl)-4-(trifluoromethyl)benzamide] | 0.86 ± 0.02 | 40.9 | > 1000 |  | > 300 °C |
| Cc1ccc(C(=O)NC(=O)Nc2ccc3c(c2)NC(=O)/C3=C\c2ccc[nH]2)cc1 [D29, (Z)—N-(3-((1H-pyrrol-2-yl)methylene)-2-oxoindolin-6-ylcarbamoyl)-4-methylbenzamide] | 0.93 ± 0.01 | 18.4 | > 1000 |  | 290 to 295 °C (dec.) |
| COc1cc(OC)cc(C(=O)NC(=O)Nc2ccc3c(c2)NC(=O)/C3=C\c2ccc[nH]2)c1 [D30] | 0.86 ± 0.02 | 29.8 |  |  | 276 to 281 °C (dec.) |
| CN(C)c1ccc(C(=O)NC(=O)Nc2ccc3c(c2)NC(=O)/C3=C\c2ccc[nH]2)cc1 [D31, (Z)—N-(3-((1H-pyrrol-2-yl)methylene)-2-oxoindolin-6-ylcarbamoyl)-4-(dimethylamino)benzamide] | 0.63 ± 0.02 | 159 | 134 |  | 285 to 290 °C (dec.) |
| Cc1[nH]c(/C=C2\C(=O)Nc3cc(NC(=O)NC(=O)c4ccc(Cl)cc4)ccc32)c(C)c1C(=O)O [D33, (Z)-5-((6-(3-(4-chlorabenzoyl)ureido)-2-oxoindolin-3-ylidene)-methyl)-2,4-dimethyl-1H-pyrrole-3-carboxylic acid] | 0.65 ± 0.05 | 3.1 | 506 |  | > 300 °C |

Continued, values first:

| IC50 [1] [µM] | IC50 (aurora B) [nM] | IC50 (FLT-3) [nM] | IC50 [2] [nM] | melting point | Compound |
| --- | --- | --- | --- | --- | --- |
| 0.12 ± 0.07 | 10.7 | 51.6 |  | 270 to 275 °C | Cc1[nH]c(/C=C2\C(=O)Nc3cc(NC(=O)NC(=O)c4ccc(Cl)c(C(F)(F)F)c4)ccc32)c(C)c1C(=O)O [D36, (Z)-5-((6-(3-(4-chloro-3-(trifluoromethyl)benzoyl)ureido)-2-oxoindolin-3-ylid-ene)methyl)-2,4-dimethyl-1H-pyrrol-3-carboxylic acid] |
| 0.09 ± 0.04 | 1.6 | 2.4 |  |  | Cc1[nH]c(/C=C2\C(=O)Nc3cc(NC(=O)NC(=O)c4ccc(Cl)c(C(F)(F)F)c4)ccc32)c(C)c1CCC(=O)O [D37, (Z)-3-(5-((6-(3-(4-chloro-3-(trifluoromethyl)benzoyl)ureido)-2-oxo-indolin-3-ylidene)methyl)-2,4-dimethyl-1H-pyrrol-3-yl)propanoic acid] |
|  | 10.7 | 8.1 | 0.23 | > 300 °C | Cc1[nH]c(/C=C2\C(=O)Nc3cc(NC(=O)c4cccn(-c5ccc(F)cc5)c4=O)ccc32)c(C)c1C(=O)O [D120, (Z)-5-((6-(1-(4-fluorophenyl)-2-oxo-1,2-dihydropyridine-3-carboxamido)-2-oxoindolin-3-ylidene)methyl)-2,4-dimethyl-1H-pyrrole-3-carboxylic acid] |
|  | 5 | 7.3 | 3.03 | 275 °C (dec.) | Cc1[nH]c(/C=C2\C(=O)Nc3cc(NC(=O)c4cccn(-c5ccc(F)cc5)c4=O)ccc32)c(C)c1CC(=O)O [D121, (Z)-2-(5-((6-(1-(4-fluorophenyl)-2-oxo-1,2-dihydropyridine-3-carboxamido)-2-oxoindolin-3-ylidene)methyl)-2,4-dimethyl-1H-pyrrol-3-yl)acetic acid] |
|  | 5.5 | 3.5 | 15.8 | > 300 °C | Cc1[nH]c(/C=C2\C(=O)Nc3cc(NC(=O)c4cccn(-c5ccc(F)cc5)c4=O)ccc32)c(C)c1CCC(=O)O [D122] |
|  | 238 | 45.2 | 1.56 | 266 to 270 °C | COC(=O)CCc1c(C)[nH]c(/C=C2\C(=O)Nc3cc(NC(=O)c4cccn(-c5ccc(F)cc5)c4=O)ccc32)c1C [D123, (Z)-methyl-3-(5-((6-(1-(4-fluorophenyl)-2-oxo-1,2-dihydropyridine-3-carboxamido)-2-oxoindolin-3-ylidene)methyl)-2,4-dimethyl-1H-pyrrol-3-yl)propanoate] |
|  | 237 | 37.9 | 0.97 | > 300 °C | O=C1Nc2cc(NC(=O)c3c[nH]cc(-c4ccc(F)cc4)c3=O)c(F)cc2/C1=C/c1ccc[nH]1 [D137, (Z)—N-(3-((1H-pyrrol-2-yl)methylene)-5-fluoro-2-oxoindolin-6-yl)-5-(4-fluorophenyl)-4-oxo-1,4-dihydropyridine-3-carboxamide] |
|  | 3.5 | 2.9 | 0.81 | 283 °C | Cc1[nH]c(/C=C2\C(=O)Nc3cc(NC(=O)c4c[nH]cc(-c5ccc(F)cc5)c4=O)ccc32)c(C)c1C(=O)O [D141, (Z)-5-((6-(5-(4-fluorophenyl)-4-oxo-1,4-dihydropyridine-3-carboxamido)-2-oxoindolin-3-ylidene)methyl)-2,4-dimethyl-1H-pyrrole-3-carboxylic acid] |
|  | 2.3 | 1.3 | 22.8 | > 300 °C | Cc1[nH]c(/C=C2\C(=O)Nc3cc(NC(=O)c4c[nH]cc(-c5ccc(F)cc5)c4=O)ccc32)c(C)c1CC(=O)O [D144, (Z)-2-(5-((6-(5-(4-fluorophenyl)-4-oxo-1,4-dihydropyridine-3-carboxamido)-2-oxoindolin-3-ylidene)methyl)-2,4-dimethyl-1H-pyrrol-3-yl)acetic acid] |
|  | 3.4 | 1.6 | 9.45 | > 300 °C | Cc1[nH]c(/C=C2\C(=O)Nc3cc(NC(=O)c4c[nH]cc(-c5ccc(F)cc5)c4=O)ccc32)c(C)c1CCC(=O)O [D145, (Z)-3-(5-((6-(5-(4-fluorophenyl)-4-oxo-1,4-dihydropyridine-3-carboxamido)-2-oxoindolin-3-ylidene)methyl)-2,4-dimethyl-1H-pyrrol-3-yl)propanoic acid] |
|  | 42.8 | 34.9 | 1.96 | 205 °C (dec.) | COc1ccc(-c2c[nH]cc(C(=O)Nc3ccc4c(c3)NC(=O)/C4=C\c3[nH]c(C)c(C(=O)N4CCOCC4)c3C)c2=O)cc1 [D155, (Z)—N-(3-((3,5-dimethyl-4-(morpholine-4-carbonyl)-1H-pyrrol-2-yl)methylene)-2-oxoindolin-6-yl)-5-(4-methoxyphenyl)-4-oxo-1,4-dihydropyridine-3-carboxamide] |
|  | 19.2 | 11.6 | 2.57 | > 300 °C | COc1ccc(-c2c[nH]cc(C(=O)Nc3ccc4c(c3)NC(=O)/C4=C\c3[nH]c(C)c(C(=O)NCCN4CCCC4)c3C)c2=O)cc1 [D156, (Z)—N-(3-((3,5-dimethyl-4-((2-(pyrrolidin-1-yl)ethyl)carbamoyl)-1H-pyrrol-2-yl)methylene)-2-oxoindolin-6-yl)-5-(4-methoxyphenyl)-4-oxo-1,4-dihydropyridine-3-carboxamide] |
